Data as given in PMC10572743 (International Journal of Molecular Sciences, 2023).
Where two headings read alike, the source gives them in different places. Marks after values point to notes of the source that are not given here.

How the values were obtained:
PBMCs = test: Cell viability of PBMCs after incubation with compounds (ATP, Cell Titer Glo); assay type: cell-based
Procedure: The potential to act anti-inflammatory was evaluated for 1,2,3-triazole derivatives 1–31 in vitro in an assay where PBMCs from 2 healthy donors were stimulated with LPS to induce the immune response. As a measurement of response, the pro-inflammatory cytokine TNF-α was determined. […] […].
(§1) Treatment and stimulation of human PBMCs. Immediately after isolation, 200,000 PBMCs were seeded per well of a 96-well plate. Compounds were dissolved in 100% dimethyl sulfoxide (DMSO, Sigma, Darmstadt, Germany), and serial dilutions in DMSO were prepared and added to cells, with starting concentration for test compounds 100 µM or 1 µM for reference dexamethasone. After pre-incubation for 1h with the compounds, lipopolysaccharide (LPS) from E. coli 0111:B4 (Sigma, Darmstadt, Germany) was added to cells at 1 ng/mL final concentration. Plates were incubated for 24 h at 37 °C, 5% CO2, followed by the collection of supernatants for measurement of TNF-α and cell viability assessment.
Enzyme-linked immunosorbent assay (ELISA) and cytotoxicity analysis. TNFα concentration in PBMC supernatants was measured using ELISA assay, using antibodies obtained from BD Pharmingen (San Diego, CA, USA) and recombinant human TNFα protein (standard) from R&D Systems (Minneapolis, MN, USA). Lumitrac 600 384-well plates (Greiner Bio-One, Kremsmünster, Austria) were coated overnight with 1 µg/mL of TNFα capture antibody diluted in phosphate-buffered saline (PBS, Thermo Fisher Scientific, Waltham, MA, USA), followed by a washing step and blocking with 5% sucrose in assay diluent (1% bovine serum albumin (BSA; Sigma, Darmstadt, Germany) in PBS) for 4 h at RT. After the blocking step, the plates were washed, and samples/standards were added to the plates. […]. Following incubation for 2 h at RT, plates were washed, and streptavidin-HRP (Thermo Fisher Scientific, Waltham, MA, USA) solution was added (final concentration 500 ng/mL, prepared in assay diluent). Plates were incubated for 20 min at RT in the dark and washed, followed by adding Luminol substrate (Sigma, Darmstadt, Germany). Luminescence was measured using EnVision 2104 Multilabel Plate Reader (PerkinElmer, MA, USA), with an exposition time of 0.1 s. […]
Data analysis. For ELISA, the blank was subtracted from measured RLU values, and TNFα concentrations in samples were interpolated from the standard curve. QC parameters for each plate were calculated from raw data. […] For viability assessment, the average luminescence value was calculated from all trigger vehicle samples, and the percentage of vehicle value was calculated for all samples. […] IC50 values of tested compounds were determined in GraphPad Prism 9 software using nonlinear regression curve fit (four parameters, with variable slope).

[1] = system: TNF-α production in PBMC stimulated with LPS; test: Inhibition of TNF-α production in PBMCs stimulated with LPS (ELISA); assay type: cell-based; conditions: Homo sapiens, average of 2 independent experiments (donors), LPS 1 ng/mL, 24 h, read-out: IC50/μM (av.) PMBC-LPS/TNF-α
Procedure: PBMC isolation. Human peripheral blood mononuclear cells (PBMCs) were isolated from buffy coats obtained from healthy adult volunteers. The buffy coats were diluted with sterile PBS and layered over Lymphoprep (Axis-Shield Diagnostics, Dundee, UK). Tubes were centrifuged for 35 min at 400× g (RT; acceleration and break turned off). After centrifugation, the mononuclear ring was collected, transferred into a new 50 mL tube, and washed thrice with sterile PBS. The remaining erythrocytes were lysed with an isotonic solution of ammonium chloride (150 mM; Kemika, Zagreb, Croatia).
as §1, with “After pre-incubation for 1h with the compounds, lipopolysaccharide (LPS) from E. coli 0111:B4 (Sigma, Darmstadt, Germany) was added to cells at 1 ng/mL final concentration.” left out
Enzyme-linked immunosorbent assay (ELISA) and cytotoxicity analysis. TNFα concentration in PBMC supernatants was measured using ELISA assay, using antibodies obtained from BD Pharmingen (San Diego, CA, USA) and recombinant human TNFα protein (standard) from R&D Systems (Minneapolis, MN, USA). Lumitrac 600 384-well plates (Greiner Bio-One, Kremsmünster, Austria) were coated overnight with 1 µg/mL of TNFα capture antibody diluted in phosphate-buffered saline (PBS, Thermo Fisher Scientific, Waltham, MA, USA), followed by a washing step and blocking with 5% sucrose in assay diluent (1% bovine serum albumin (BSA; Sigma, Darmstadt, Germany) in PBS) for 4 h at RT. After the blocking step, the plates were washed, and samples/standards were added to the plates. After overnight incubation at 4 °C, detection antibodies diluted in assay diluent to a final concentration of 250 ng/mL were added. Following incubation for 2 h at RT, plates were washed, and streptavidin-HRP (Thermo Fisher Scientific, Waltham, MA, USA) solution was added (final concentration 500 ng/mL, prepared in assay diluent). Plates were incubated for 20 min at RT in the dark and washed, followed by adding Luminol substrate (Sigma, Darmstadt, Germany). […] To evaluate cell viability, Cell Titer Glo reagent was used (Promega, Madison, WI, USA) according to the manufacturer’s instructions.
Data analysis. For ELISA, the blank was subtracted from measured RLU values, and TNFα concentrations in samples were interpolated from the standard curve. QC parameters for each plate were calculated from raw data. […] For viability assessment, the average luminescence value was calculated from all trigger vehicle samples, and the percentage of vehicle value was calculated for all samples. The compound effect was considered cytotoxic if reduction from a vehicle was ≥20%, and these concentrations were excluded from further analysis. IC50 values of tested compounds were determined in GraphPad Prism 9 software using nonlinear regression curve fit (four parameters, with variable slope).

BChE = BChE (Equus caballus, UniProt P81908); test: biochemical; assay type: biochemical; conditions: for inhibition at 250 µM / inhibition at 500 µM / inhibition at 350 µM: read-out: BChE % Inhibition
AChE = AChE (Electrophorus electricus, UniProt O42275); test: biochemical; assay type: biochemical; conditions: for inhibition at 250 µM: at maximal concentration tested 250 μM; for selectivity AChE over BChE: from IC50 values of Table 2; for inhibition at 500 µM: at maximal concentration tested 500 μM; for inhibition: at maximal concentration tested 350 μM
[2] = system: TNF-α production in PBMC stimulated with LPS; conditions: previous research; read-out: PMBC-LPS/TNFα; cited from earlier work
[3] = PBMC, ATP levels, highest tested concentration

AChE, sequence (O42275 24-633): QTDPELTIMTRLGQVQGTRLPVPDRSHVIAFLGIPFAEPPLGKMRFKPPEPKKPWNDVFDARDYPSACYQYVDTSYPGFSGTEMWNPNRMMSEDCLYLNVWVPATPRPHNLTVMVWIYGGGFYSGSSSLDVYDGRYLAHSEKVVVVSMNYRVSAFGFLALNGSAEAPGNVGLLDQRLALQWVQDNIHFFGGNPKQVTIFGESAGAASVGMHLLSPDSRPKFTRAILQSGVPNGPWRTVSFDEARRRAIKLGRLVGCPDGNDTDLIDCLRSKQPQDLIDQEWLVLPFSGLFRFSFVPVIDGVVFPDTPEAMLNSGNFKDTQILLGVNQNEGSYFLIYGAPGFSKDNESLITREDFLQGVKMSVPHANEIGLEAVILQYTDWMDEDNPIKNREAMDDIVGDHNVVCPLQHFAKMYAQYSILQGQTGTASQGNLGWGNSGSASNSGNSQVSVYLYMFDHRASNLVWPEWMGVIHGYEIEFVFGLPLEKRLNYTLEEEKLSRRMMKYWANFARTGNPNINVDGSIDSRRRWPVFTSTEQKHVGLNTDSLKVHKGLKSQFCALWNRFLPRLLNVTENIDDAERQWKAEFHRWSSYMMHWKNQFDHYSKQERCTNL
BChE, sequence (P81908 whole entry): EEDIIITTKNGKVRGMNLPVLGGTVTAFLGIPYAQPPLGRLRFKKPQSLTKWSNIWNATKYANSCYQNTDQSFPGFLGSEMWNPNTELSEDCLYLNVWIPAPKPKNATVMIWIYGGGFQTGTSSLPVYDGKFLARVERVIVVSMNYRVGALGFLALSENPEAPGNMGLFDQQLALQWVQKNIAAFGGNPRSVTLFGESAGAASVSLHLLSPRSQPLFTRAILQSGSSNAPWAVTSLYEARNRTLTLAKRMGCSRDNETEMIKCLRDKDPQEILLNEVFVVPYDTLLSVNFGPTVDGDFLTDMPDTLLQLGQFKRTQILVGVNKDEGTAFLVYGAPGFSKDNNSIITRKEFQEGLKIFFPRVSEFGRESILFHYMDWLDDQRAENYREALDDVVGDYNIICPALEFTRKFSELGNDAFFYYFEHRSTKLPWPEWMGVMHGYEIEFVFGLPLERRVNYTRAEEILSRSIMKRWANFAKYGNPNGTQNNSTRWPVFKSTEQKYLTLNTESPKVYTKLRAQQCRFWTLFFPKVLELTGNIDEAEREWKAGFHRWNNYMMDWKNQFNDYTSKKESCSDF

FC(F)(F)c1ccc(Cn2nnc3c2-c2ccsc2CC3)cc1 [Compound 26]
cell viability (PBMCs; [3]): cell viability reduction
IC50 [1]: 9.4 µM

C=CCCCn1nnc2ccc3sccc3c21 [Compound 13, 1-(pent-4-en-1-yl)-1H-thieno[3′,2′:3,4]benzo[1,2-d][1–3]triazole]
IC50 [1]: 21.3 µM
IC50 (BChE): 40.7 µM
selectivity BChE over AChE (BChE; from IC50 values of Table 2): selective inhibition for BChE
inhibition at 250 µM (BChE): 86.5 ± 5%
inhibition at 250 µM (AChE): 46.4 ± 2.5%

COc1cccc(Cn2nnc3ccc4ccc(OC)cc4c32)c1 [Compound 6, 8-methoxy-1-(3-methoxybenzyl)-1H-naphtho[1,2-d][1–3]triazole]
IC50 [1]: 1.9 µM
inhibition at 250 µM (BChE): 47.8 ± 0.5%
IC50 (AChE): 177 µM
inhibition at 250 µM (AChE): 78.6 ± 3.8%
selectivity AChE over BChE (AChE): Selective inhibition toward AChE

COc1ccc(CCn2nnc3ccc4sccc4c32)cc1 [Compound 21]
IC50 [1]: 17 µM

OCCCCn1nnc2ccc3sccc3c21 [Compound 14]
IC50 [1]: 38.8 µM

COc1ccc2ccc3nnn(Cc4cccc(F)c4)c3c2c1 [Compound 5, 1-(3-fluorobenzyl)-8-methoxy-1H-naphtho[1,2-d][1–3]triazole]
IC50 [1]: > 100 µM
inhibition at 250 µM (BChE): 43.8 ± 1.8%
IC50 (AChE): 55.5 µM
inhibition at 250 µM (AChE): 80.8 ± 1.8%
selectivity AChE over BChE (AChE): Selective inhibition toward AChE

COc1ccc2ccc3nnn(C(C)C)c3c2c1 [Compound 1, 1-isopropyl-8-methoxy-1H-naphtho[1,2-d][1–3]triazole]
IC50 [1]: 8.1 µM
IC50 (BChE): 261 µM
inhibition at 500 µM (BChE): 65.3 ± 0.7%
IC50 (AChE): 329 µM
inhibition at 500 µM (AChE): 58.1 ± 1.6%

c1cc2c(s1)CCc1nnn(CCCN3CCOCC3)c1-2 [Compound 25]
IC50 [1]: > 100 µM

COc1ccc2ccc3nnn(Cc4ccc(F)cc4)c3c2c1 [Compound 4, 1-(4-fluorobenzyl)-8-methoxy-1H-naphtho[1,2-d][1–3]triazole]
IC50 [1]: 19.1 µM
inhibition at 500 µM (BChE): 25 ± 0.5%
inhibition at 500 µM (AChE): 35.1 ± 2%

FC(F)(F)c1nc2c(ccc3sccc32)s1 [Compound 30]
IC50 [1]: > 100 µM

FC(F)(F)Oc1ccc(Cn2nnc3ccc4sccc4c32)cc1 [Compound 20]
cell viability (PBMCs; [3]): cell viability reduction
IC50 [1]: 8.9 µM

Cc1cc2c(ccc3nnn(Cc4cccs4)c32)s1 [Compound 11, 7-methyl-1-(thiophen-2-ylmethyl)-1H-thieno[3′,2′:3,4]benzo[1,2-d][1–3]triazole]
IC50 [1]: 38.7 µM
IC50 (BChE): 123 µM
inhibition at 350 µM (BChE): 72.3 ± 5.6%
IC50 (AChE): 218 µM
inhibition (AChE): 71.3 ± 0.3%

COc1ccc(Cn2nnc3ccc4ccc(OC)cc4c32)cc1 [C]
IC50 [2]: 2.2 µM

C=CCn1nnc2ccc3sc(C)cc3c21 [Compound 8, 1-allyl-7-methyl-1H-thieno[3′,2′:3,4]benzo[1,2-d][1–3]triazole]
IC50 [1]: > 100 µM
IC50 (BChE): 206 µM
inhibition at 350 µM (BChE): 62.6 ± 0.2%
inhibition (AChE): 43.5 ± 2.1%

COc1ccc(Cn2nnc3ccc4sc(C)cc4c32)cc1 [Compound 10, 1-(4-methoxybenzyl)-7-methyl-1H-thieno[3′,2′:3,4]benzo[1,2-d][1–3]triazole]
IC50 [1]: 19.2 µM
IC50 (BChE): 99.7 µM
inhibition at 350 µM (BChE): 65.2 ± 0.3%
IC50 (AChE): 66.6 µM
inhibition (AChE): 83.6 ± 3.7%

Cc1cc2c(ccc3nnn(Cc4ccco4)c32)s1 [Compound 12, 1-(furan-2-ylmethyl)-7-methyl-1H-thieno[3′,2′:3,4]benzo[1,2-d][1–3]triazole]
IC50 [1]: 40.6 µM
inhibition at 350 µM (BChE): 46.1%
inhibition (AChE): 41.8 ± 1%

Fc1ccc(Cn2nnc3ccc4sccc4c32)cc1 [Compound 18]
IC50 [1]: 27.7 µM

c1csc(Cn2nnc3ccc4sccc4c32)c1 [Compound 22]
IC50 [1]: 16.1 µM

CCOC(=O)CCn1nnc2ccc3sccc3c21 [Compound 17]
IC50 [1]: > 100 µM

c1cc2c(ccc3nnn(CCCN4CCOCC4)c32)s1 [Compound 16]
IC50 [1]: > 100 µM

CC(C)c1nc2ccc3sccc3c2s1 [Compound 28]
IC50 [1]: > 100 µM

Cc1nc2c(ccc3sccc32)s1 [Compound 27]
IC50 [1]: 12.2 µM

Clc1nc2c(ccc3sccc32)s1 [Compound 29]
IC50 [1]: > 100 µM

OCCCCn1nnc2c1-c1ccsc1CC2 [Compound 23]
IC50 [1]: > 100 µM

C[C@@H]1C[C@H]2[C@@H]3CCC4=CC(=O)C=C[C@]4(C)[C@@]3(F)[C@@H](O)C[C@]2(C)[C@@]1(O)C(=O)CO [dexamethasone, reference compound]
IC50 [1]: 0.007 µM

Cc1cc2c(ccc3nnn(Cc4ccc(F)cc4)c32)s1 [Compound 9, 1-(4-fluorobenzyl)-7-methyl-1H-thieno[3′,2′:3,4]benzo[1,2-d][1–3]triazole]
IC50 [1]: > 100 µM
IC50 (BChE): 69.8 µM
inhibition at 350 µM (BChE): 76.1 ± 0.8%
IC50 (AChE): 83 µM
inhibition (AChE): 78.8 ± 1.9%

FC(F)(F)c1ccc(Cn2nnc3ccc4sccc4c32)cc1 [Compound 19]
cell viability (PBMCs): 10.2 **
cell viability (PBMCs; [3]): cell viability reduction
IC50 [1]: 10.2 µM

COc1ccc2ccc3nnn(Cc4cccs4)c3c2c1 [Compound 7, 8-methoxy-1-(thiophen-2-ylmethyl)-1H-naphtho[1,2-d][1–3]triazole]
IC50 [1]: > 100 µM
IC50 (BChE): 294 µM
inhibition at 500 µM (BChE): 60.9 ± 0.4%
IC50 (AChE): 110 µM
inhibition at 500 µM (AChE): 81.4 ± 0.8%

C=CCCn1nnc2ccc3ccc(OC)cc3c21 [Compound 2, 1-(but-3-en-1-yl)-8-methoxy-1H-naphtho[1,2-d][1–3]triazole]
IC50 [1]: 10.4 µM
IC50 (BChE): 110 µM
inhibition at 500 µM (BChE): 80.2 ± 0.7%
IC50 (AChE): 91.8 µM
inhibition at 500 µM (AChE): 77.9 ± 3.6%

CC(=O)Nc1nc2c(ccc3sccc32)s1 [Compound 31]
IC50 [1]: > 100 µM

C=CCCCn1nnc2ccc3ccc(OC)cc3c21 [Compound 3, 8-methoxy-1-(pent-4-en-1-yl)-1H-naphtho[1,2-d][1–3]triazole]
IC50 [1]: 12 µM
IC50 (BChE): 53.5 µM
inhibition at 250 µM (BChE): 76.6 ± 1.8%
IC50 (AChE): 51.3 µM
inhibition at 250 µM (AChE): 64.8 ± 5.3%

c1cc2c(s1)CCc1nnn(CCN3CCOCC3)c1-2 [Compound 24]
IC50 [1]: > 100 µM
